Laboratory results reported in patent US9849174B2, “Methods and compositions related to immunogenic fibrils” (The Board of Regents of the University of Texas System, priority 2009, dated 2017).
“Also recorded” adds a separate entry of the source.

How the values were obtained:
[1] = biological target: T1, streptavidin-conjugated gold particles (Streptomyces avidinii, UniProt P22629); assay: Streptavidin-gold labelling of fibrils imaged by TEM; assay type: binding; settings: 5 nm streptavidin-conjugated gold
T1 construct: purchased Sigma
T1 sequence (P22629 25-183): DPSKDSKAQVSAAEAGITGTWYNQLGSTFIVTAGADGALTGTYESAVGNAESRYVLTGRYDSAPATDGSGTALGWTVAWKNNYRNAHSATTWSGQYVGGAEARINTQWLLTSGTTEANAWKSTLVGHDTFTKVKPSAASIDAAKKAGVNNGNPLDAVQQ
Source text: The availability of the OVA epitope on the surface of O-Q11 nanofibers was confirmed by TEM and by ELISA. To label epitopes in TEM samples, an N-terminally biotinylated O-Q11 was synthesized with a single biotin tag directly adjacent to the OVA sequence. This biotinylated peptide produced fibrils that appeared morphologically similar to O-Q11 (FIG. 2D). Five-nanometer streptavidin-conjugated gold particles were then used to probe epitope availability on the fibril surface, with unmodified Q11 serving as a negative control. […] To confirm this finding and to quantify the availability of the entire epitope, ELISA was employed. Plates coated with OVA and O-Q11 peptides were probed with antisera from mice immunized with OVA, either with or without complete Freund's adjuvant (CFA).
Transmission Electron Microscopy. Peptides were dissolved in deionized water and mixed 6:1 with PBS to produce working peptide concentrations of 330 μM. After fibrillizing for 4h, peptides were applied to 400 mesh gold grids with carbon support films, negative-stained with 1% uranyl acetate, and imaged on a Tecnai F30 TEM. For gold staining, prior to negative-staining grids were placed upside-down on a droplet of blocking solution (0.2% acetylated BSA, 0.1% gelatin from cold water fish skin in PBS) for 5 min, then for 2 h on a droplet of 5 nm colloidal gold conjugated to streptavidin (Sigma). […]

C57BL/6 mice = assay: Subcutaneous immunization of mice, serum antibody titers and isotypes by ELISA (Example 1); assay type: in vivo
Description: To investigate how fibrillization affected the immunogenicity of OVA, C57BL/6 mice were immunized subcutaneously with the different peptides and boosted with additional peptide at 28 days (see methods). Serum was collected seven days after the boost, and levels of various immunoglobulins were measured.
Immunizations. […] Stock solutions were then diluted in sterile, endotoxin-free PBS to working concentrations. […] CFA-adjuvanted groups received the same volume and total peptide dose, prepared by emulsifying peptide/PBS solutions 1:1 in CFA. […] CFA groups were boosted in incomplete Freund's adjuvant (IFA). Mice receiving mixtures of Q11 and OVA received 100 nmol of each peptide in the first injection and 50 nmol of each in the second. Seven days after the boost, the mice were sacrificed, and sera and spleens were harvested.
Determination of antibody titers. High-binding ELISA plates (eBioscience) were coated with either 20 μg/mL peptide in PBS or PBS alone (for uncoated background subtraction) overnight at 4° C. […] To determine titers for each antiserum, background absorbance values from uncoated wells were subtracted from coated wells, and net absorbances were compared to cutoff values. The cutoff consisted of the mean plus three times the standard deviation of the negative control group (mice receiving OVA without adjuvant) for each corresponding dilution. Any sample dilutions having absorbances above this cutoff value were considered positive readings. The titer was considered as the highest dilution for which it and all lower dilutions had positive readings. If no positive dilutions were present the titer was considered to be 10^2. […] Antibody isotypes were analyzed similarly using a mouse monoclonal antibody kit containing goat anti-mouse IgG1, IgG2a, IgG2b, IgG3, and IgM (Sigma).

CFSE labeled OTII cells = assay: Adoptive transfer of CFSE-labeled OTII T cells and immunization; assay type: in vivo, mice; settings: 100 nmol s.c., five days after immunization, spleen and lymph nodes
Description: Antibody responses to self-assembled peptides are T cell-dependent. […] To determine the requirement for T cells, an adoptive T cell transfer assay was performed. Specifically, mice were injected with CFSE labeled […] cells, which express receptors for the H-2^b restricted OVA epitope. Antigen-mediated proliferation causes a decrease in the CFSE intensity which can be detected by flow cytometry.
Adoptive Transfer of T cells OTII transgenic mice on C57BL/6 background, whose T cells recognize the OVA peptide and carry a marker to distinguish them from naïve T cells from B6 mice (CD90.1 congenic). In vivo CD4+ T cell proliferation was analyzed after adoptive transfer into mice and immunization with the peptides. Briefly, splenocytes and lymph nodes of OTII+ C57BL/6 mice were processed into a single cell suspension and enriched for CD4+ T cells, by negative magnetic separation (Miltenyi Biotec). […] After staining, cells were washed twice with FACS buffer and samples were run on the LSR-II (BD Biosciences, NJ) flow cytometer and analyzed for evidence of proliferation as indicated by dilution of CFSE intensity using. FlowJo cytometry analysis software (Tree Star, OR) was used to analyze and quantify the results. […]

[2] = ranges: high and low values among three batches for each peptide
Description: Endotoxin levels of all formulations were tested using a Limulus Amebocyte Lystae (LAL) chromogenic end point assay (Lonza, USA).
To account for batch-to-batch variability three different sets of peptides were synthesized for immunizing mice.

[3] = tested on: primary human endothelial cells; settings: cited from earlier work
mice = settings: mouse, in vivo; cited from earlier work
rat myocardium = settings: in vivo; cited from earlier work
mouse myocardium = settings: in vivo; cited from earlier work

Ac-QQKFQFQFEQQ-NH2 [Peptide Q11, Ac-QQKFQFQFEQQ-Am]
Binding of streptavidin-gold to fibrils [1]: negligible numbers of particles; also recorded: did not bind streptavidin-gold | Total IgG response (C57BL/6 mice; delivered in CFA): non-immunogenic even in CFA | Total IgG response (C57BL/6 mice; delivered with or without CFA): did not raise any detectable IgG | Total IgG response (C57BL/6 mice; peptide in PBS without added adjuvant, s.c., boost day 28, serum 7 days after boost): did not elicit a response | Transferred cells that proliferated (shift in CFSE intensity) (CFSE labeled OTII cells): negligible shift in CFSE intensity | Endotoxin [2]: 0.024-0.098 EU/mL | Cell death / cytotoxicity in primary cell cultures [3]: did not induce cell death | Antibody responses (mice): little to no antibody responses

n-RARADADARARADADA-c [RAD16-II]
Tissue responses (rat myocardium): Negligible tissue responses | Tissue responses (mouse myocardium): Negligible tissue responses
